The text below walks through data of patent US20090186915A1, “Compositions and methods for treatment of glioblastoma, gliosarcoma, NSCLC, and head and neck cancer” (Unibioscreen S. A., priority 2006, published 2009).

Series [1] deals with LoVo. Description: MTT colorimetric assay, LoVo cells. The format is cell-based. The conditions noted are these: Homo sapiens, 72 h, 3 days of culturing, mean of six determinations, read-out: IC50 (μM) In Vitro Growth Inhibition. Here is the method: The overall growth of human cancer cell lines was determined by means of the calorimetric MTT (3-[4,5-dimethylthiazol-2-yl]-diphenyl tetrazolium bromide; Sigma) assay, as detailed previously.
(Formazan colour is commonly taken as a measure of viable cells.)

Series [2] relates to platelets, red and white blood cells. Description: Compound-induced hematotoxicity and tolerance in mice. The note with it: 20 mg/kg intra-venous, three times a week for five weeks. The format is in vivo. Here is the method:
We have determined the compound-induced potential hematotoxicity of the compound produced according to example 2 or example 7 on platelets, red and white blood cells in comparison of the effect of amonafide on platelets, red and white blood cells. The effect of amonafide was evaluated at 10 mg/kg and 20 mg/kg, by the intra-peritoneal administration to mice. The administration schedule was five times a week for three consecutive weeks. The effect of the compound produced according to example 2 or example 7 was evaluated at 20 mg/kg, by the intra-venous administration to mice. The administration schedule was three times a week (on Mondays, Wednesdays and Fridays) for five consecutive weeks. The animals were sacrificed 3 days after the last injection. There were 10 mice per group. FIG. 1 illustrates results of this assay for compound-induced hematotoxicity on platelets.

Series [3] deals with PC-3. The series is described as follows: Lysosomal membrane permeabilization (LMP), PC-3. The format is cell-based, human. The note with it: 72 hours, 1 μM or 10 μM. From the text: It is well known that lysosomes control cell death at several levels. In response to endogenous or exogenous stress (including chemotherapy), lysosomal membrane permeabilization (LMP) can occur, leading to the release of catabolic hydrolases that can mediate caspase-dependent apoptosis, caspase-independent apoptosis-like cell death or even necrosis following high levels of LMP.

The test system of series [4] is PC-3. Description: Senescence-associated β-galactosidase staining, PC-3. The format is cell-based, human. The note with it: 10 μM, 72 hours. Here is the method: After the indicated treatments, cells were washed in PBS, fixed for 3 to 5 minutes (at room temperature) in 2% formaldehyde/0.2% glutaraldehyde, washed and incubated at 37° C. (in the absence of CO2) with fresh senescence-associated β-Gal (SA-β-Gal) staining solution: 1 mg/ml of 5-bromo-4-chloro-3-indolyl […] (X-Gal; Sigma). Staining was evident within 2 to 4 hours and maximal after 12 to 16 hours. To detect lysosomal β-Gal, the citric acid/sodium phosphate used was pH 4.0. As described in the study of Dimri et al. [Proc Natl Acad Sci USA. 1995; 92:9363-9367.], after fixing and staining with X-Gal, the number of cells positive for the SA-β-Gal activity (intense blue staining) was then counted independently by two different individuals (on 400 cells/plate). Representative photographs (original magnifications, ×20) of stained cells from different experimental treatments were taken. As a positive control for SA-β-Gal expression, Adriamycin-treated cells were used.
Human PC-3 and DU-145 prostate cancer cells cultured in 0 or 10 μM UNBS5162 or 20 nM Adriamycin for 72 hours were evaluated by SA-β-Gal staining. The data clearly indicate that 10 μM [but not 1 μM or 5×1 μM] […] TMZ, as an inducer of autophagy but not of senescence, was used as a negative control.

The subject of series [5] is CFC-GEMM. The series is described as follows: HALO hematotoxicity assay, human CFC-GEMM. The conditions noted are these: 7 days culture, iATP. The format is cell-based. The procedure: (§1) Investigation of the hematotoxic potential of UNBS5162 was undertaken by HemoGenix (Colorado Springs, Colo.). The effects of UNBS5162 on stem and progenitor cell populations from murine and human bone marrow were assessed using HALO (Hematopoietic/Hematotoxicity Assay through Luminescence Output) technology. Stem and hematopoietic progenitor cell populations were isolated from mouse and human bone marrow samples, plated at a concentration of 1.0×10^4 cells/well and cultured for 5 and 7 days, respectively, in the presence of growth factors and increasing concentrations of UNBS5162 ranging from 0.5 nM to 50 μM. The proliferative or growth potential of cell populations was determined from intracellular ATP (iATP) concentrations and a luciferin/luciferase bioluminescence signal detection system. All samples were assayed in eight replicates. The results are presented as estimated inhibitory concentration (IC) values.

Series [6] concerns GM-CFC. The series is described as follows: HALO hematotoxicity assay, human GM-CFC. The format is cell-based. The note with it: 7 days culture, iATP. The procedure: as §1
Series [7] has as its system Mk-CFC. Description: HALO hematotoxicity assay, human Mk-CFC. The format is cell-based. The note with it: 7 days culture, iATP. The procedure: as §1
For series [8], the system named is E2F1. Description: E2F1 expression (Western blot, RT-PCR), PC-3. The note with it: 10 μM. The format is cell-based, human. Here is the method: Reverse transcription reactions were carried out in a thermal cycler (Thermocycler; Westburg, Leusden, The Netherlands). The purification of the cDNAs produced was undertaken using the High Pure PCR Product Purification Kit (Roche Diagnostics, Mannheim, Germany) in accordance with the manufacturer's instructions. Quantitative PCR reactions were performed with 50 ng of purified cDNA in a LightCycler thermocycler instrument (Roche Diagnostics) using LCFastart DNA Master SYBR Green 1 (Roche Diagnostics). After amplification, data analysis was carried out by means of the “Fit points” algorithm of the LightCycler quantification software. A standard curve enabled cDNA quantification of samples to be effected. […]
Cell extracts were prepared by the lysis of subconfluent PC-3 cells directly in boiling lysis buffer (10 mM Tris, pH 7.4, 1 mM Na3O4V, 1% SDS, pH 7.4). Approximately 40 μg of extracted proteins (evaluated by the bicinchoninic acid protein assay; Pierce, Perbio Science, Erembodegem, Belgium) was then loaded onto a denaturing polyacrylamide gel. The proteins submitted to Western blot analyses were detected using primary antibodies provided by: 1) CST Technologies, Bioké, Leiden, The Netherlands: Rb (1:2000) and p-Rb (1:1000); 2) BD Transduction Laboratories, Erembodegem, Belgium: E2F1 (1:400); and 3) AbCam, Cambridge, UK: tubulin (1:3000, used as a loading control). […]
(A western blot detects proteins with antibodies after separation by electrophoresis.)

Series [9] relates to LC3-II. The series is described as follows: LC3-II immunoblot, DU-145. The note with it: 10 μM. The format is cell-based, human.

In general, IC50 refers to the concentration needed to halve the response being measured. By IC90 is commonly meant the concentration at which the effect reaches the 90% level. For orientation: IC75 means the concentration needed for an effect of 75%. Higher therefore signals weaker potency. As to `CN(C)CCN1C(=O)c2cccc3cc(NC(N)=O)cc(c23)C1=O` [UNBS5162, N-{2-[2-(dimethylamino)ethyl]-1,3-dioxo-2,3-dihydro-1H-benzo[de]isoquinolin-5-yl}urea], the concentration for half-maximal inhibition (IC50) in series [1] was determined as 8.9 µM; in series [5] (168 h), 2.57 µM; in series [6] (168 h), 3.74 µM; in series [7] (168 h) it was 4.05 µM. In addition, the “tolerance of chronic administrations” value in series [2] was “tolerated 15 chronic administrations”. For the same molecule, the “lysosomal membrane permeabilization (LMP)” value in series [3] is given as “no LMP”. Besides, the SA-β-Gal expression entry in [4] was “Limited SA-β-Gal expression”. Besides, the IC90 in series [5] (168 h) turned out to be 12.8 µM; in [6] (168 h), 19.9 µM; in [7] (168 h), 20.1 µM. In addition, the IC75 in series [5] was determined as 5.67 µM; in series [6], 8.12 µM; in [7], 9.22 µM. Besides, the “E2F1 expression at protein and mRNA levels” value in series [8] is “dramatic decrease in E2F1 expression”. For the same molecule, in [9], the “LC3-II protein (marker of autophagy)” value is “induced the up-regulation of LC3-II protein”.
